Tests used:
SW480 [1] = test: Cytotoxicity against human SW480 cells; assay type: functional, cell-based
HL-60 [2] = test: Cytotoxicity against human HL-60 cells; assay type: functional, cell-based
MCF7 [3] = test: Cytotoxicity against human MCF7 cells; assay type: functional, cell-based
U-251 [4] = test: Cytotoxicity against human U-251 cells; assay type: functional, cell-based
HL-60 [5] = test: Cytotoxicity against human HL-60 cells by MTT assay; assay type: functional, cell-based
MCF7 [6] = test: Cytotoxicity against human MCF7 cells by MTT assay; assay type: functional, cell-based
SW480 [7] = test: Cytotoxicity against human SW480 cells by MTT assay; assay type: functional, cell-based
U-251 [8] = test: Cytotoxicity against human U-251 cells by MTT assay; assay type: functional, cell-based
L02 = test: Cytotoxicity against human L02 cells by MTT assay; assay type: cell-based

| Structure (SMILES) | IC50 (SW480 [1]) [µM] | IC50 (HL-60 [2]) [µM] | IC50 (MCF7 [3]) [µM] | IC50 (U-251 [4]) [µM] | IC50 (HL-60 [5]) [µM] | IC50 (MCF7 [6]) [µM] | IC50 (SW480 [7]) [µM] | IC50 (U-251 [8]) [µM] | Activity (L02) |
| --- | --- | --- | --- | --- | --- | --- | --- | --- | --- |
| C=C(CC[C@@H](C)[C@H]1CC[C@H]2C3=C(C(=O)C[C@]12C)[C@@]1(C)CCC(=O)[C@@H](C)[C@@H]1CC3=O)[C@H](C)C(=O)OC | > 100 | 25.2 | 50.7 | 44.9 | – | – | – | – | – |
| C=C(CC[C@@H](C)[C@H]1CC[C@H]2C3=C(C(=O)C[C@]12C)[C@@]1(C)CCC(=O)[C@@H](C)[C@@H]1C[C@H]3OC(C)=O)[C@H](C)C(=O)Nc1nc[nH]n1 | – | – | – | – | > 100 | > 100 | > 100 | 93.2 | – |
| C=C(CC[C@@H](C)[C@H]1CC[C@H]2C3=C(C(=O)C[C@]12C)[C@@]1(C)CCC(=O)[C@@H](C)[C@@H]1C[C@H]3OC(C)=O)[C@H](C)C(=O)Nc1ccc2ccccc2n1 | – | – | – | – | 96.3 | > 100 | > 100 | 95.8 | – |
| C=C(CC[C@@H](C)[C@H]1CC[C@H]2C3=C(C(=O)C[C@]12C)[C@@]1(C)CCC(=O)[C@@H](C)[C@@H]1C[C@H]3OC(C)=O)[C@H](C)C(=O)Nc1ncc2ccccc2n1 | – | – | – | – | 8.9 | 8.6 | 40.8 | 2.9 | Non-Toxic |
| C=C(CC[C@@H](C)[C@H]1CC[C@H]2C3=C(C(=O)C[C@]12C)[C@@]1(C)CCC(=O)[C@@H](C)[C@@H]1C[C@H]3OC(C)=O)[C@H](C)C(=O)Nc1cccc2cccnc12 | – | – | – | – | 89.2 | > 100 | > 100 | > 100 | – |
| C=C(CC[C@@H](C)[C@H]1CC[C@H]2C3=C(C(=O)C[C@]12C)[C@@]1(C)CCC(=O)[C@@H](C)[C@@H]1C[C@H]3OC(C)=O)[C@H](C)C(=O)Nc1ccccc1N | – | – | – | – | 0.7 | 29.2 | > 100 | 27.4 | Non-Toxic |
| C=C(CC[C@@H](C)[C@H]1CC[C@H]2C3=C(C(=O)C[C@]12C)[C@@]1(C)CCC(=O)[C@@H](C)[C@@H]1C[C@H]3OC(C)=O)[C@H](C)C(=O)O | > 100 | > 100 | > 100 | > 100 | – | – | – | – | – |
| C=C(CC[C@@H](C)[C@H]1CC[C@H]2C3=C(C(=O)C[C@]12C)[C@@]1(C)CCC(=O)[C@@H](C)[C@@H]1C[C@H]3OC(C)=O)[C@H](C)C(=O)Nc1ccc2[nH]ccc2c1 | – | – | – | – | > 100 | 12.3 | > 100 | 10.4 | – |
| C=C(CC[C@@H](C)[C@H]1CC[C@H]2C3=C(C(=O)C[C@]12C)[C@@]1(C)CCC(=O)[C@@H](C)[C@@H]1C[C@H]3OC(C)=O)[C@H](C)C(=O)Nc1[nH]cnc1C(N)=O | – | – | – | – | > 100 | 17.6 | 17.9 | 17.1 | – |
| C=C(CC[C@@H](C)[C@H]1CC[C@H]2C3=C(C(=O)C[C@]12C)[C@@]1(C)CCC(=O)[C@@H](C)[C@@H]1CC3=O)[C@H](C)C(=O)O [ANTCIN B] | > 100 | > 100 | > 100 | > 100 | – | – | – | – | – |
| C=C(CC[C@@H](C)[C@H]1CC[C@H]2C3=C(C(=O)C[C@]12C)[C@@]1(C)CCC(=O)[C@@H](C)[C@@H]1C[C@H]3OC(C)=O)[C@H](C)C(=O)/N=c1/cc(CCc2ccccc2)[nH][nH]1 | – | – | – | – | > 100 | > 100 | > 100 | > 100 | – |
| C=C(CC[C@@H](C)[C@H]1CC[C@H]2C3=C(C(=O)C[C@]12C)[C@@]1(C)CC/C(=N\O)[C@@H](C)[C@@H]1C/C3=N/O)[C@H](C)C(=O)OC | – | – | – | – | 3.7 | 18.2 | 2.2 | 3.3 | Non-Toxic |
| CC(=O)O[C@H]1C(=O)[C@@]2(C)[C@H]([C@H](OC(=O)c3ccccc3)[C@]3(O)C[C@H](OC(=O)[C@H](O)[C@@H](NC(=O)c4ccccc4)c4ccccc4)C(C)=C1C3(C)C)[C@]1(OC(C)=O)CO[C@@H]1C[C@@H]2O [PACLITAXEL] | – | – | – | – | 0.08 | – | – | – | – |
| C=C(CC[C@@H](C)[C@H]1CC[C@H]2C3=C(C(=O)C[C@]12C)[C@@]1(C)CCC(=O)[C@@H](C)[C@@H]1C[C@H]3OC(C)=O)[C@H](C)C(=O)OC | 15.4 | 16.8 | 46.3 | 11.4 | – | – | – | – | – |
| C=C(CC[C@@H](C)[C@H]1CC[C@H]2C3=C(C(=O)C[C@]12C)[C@@]1(C)CCC(=O)[C@@H](C)[C@@H]1C[C@H]3OC(C)=O)[C@H](C)C(=O)Nn1cnnc1 | – | – | – | – | > 100 | > 100 | > 100 | 82.4 | – |

— ChEMBL document CHEMBL4819113, “Chemical modifications of ergostane-type triterpenoids from Antrodia camphorata and their cytotoxic activities” (Bioorg Med Chem Lett, 2021)
